# According to US6420341B1, “Sulphur derivatives with a retroamide bond as endothelin-converting enzyme inhibitors” (Aventis Pharma S.A., priority 1996, dated 2002):
# Biological target: T1, endothelin-converting enzyme (ECE) (Homo sapiens, UniProt P42892)
# T1 sequence (P42892 1-770): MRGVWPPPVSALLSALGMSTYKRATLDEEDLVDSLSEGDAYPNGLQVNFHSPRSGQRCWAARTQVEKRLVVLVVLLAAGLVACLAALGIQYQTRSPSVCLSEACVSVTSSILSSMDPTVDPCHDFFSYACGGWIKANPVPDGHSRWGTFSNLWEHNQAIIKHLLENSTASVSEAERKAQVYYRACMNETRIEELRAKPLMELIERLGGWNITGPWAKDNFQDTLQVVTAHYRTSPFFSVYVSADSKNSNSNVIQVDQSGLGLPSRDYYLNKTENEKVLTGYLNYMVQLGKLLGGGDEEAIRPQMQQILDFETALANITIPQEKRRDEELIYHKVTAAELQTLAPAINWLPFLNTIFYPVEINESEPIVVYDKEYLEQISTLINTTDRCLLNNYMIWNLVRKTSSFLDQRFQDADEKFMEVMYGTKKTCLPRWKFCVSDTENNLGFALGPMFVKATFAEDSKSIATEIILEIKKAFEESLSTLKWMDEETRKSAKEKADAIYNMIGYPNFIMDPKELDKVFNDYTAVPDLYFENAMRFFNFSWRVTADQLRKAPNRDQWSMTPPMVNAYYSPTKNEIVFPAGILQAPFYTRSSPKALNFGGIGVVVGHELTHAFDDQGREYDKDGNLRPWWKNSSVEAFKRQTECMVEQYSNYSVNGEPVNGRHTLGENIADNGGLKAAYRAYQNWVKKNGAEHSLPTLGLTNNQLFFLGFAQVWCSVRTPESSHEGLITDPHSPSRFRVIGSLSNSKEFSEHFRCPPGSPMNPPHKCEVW
# Assay: Determination of the inhibitory activity of the endothelin-converting enzyme (ECE), cleavage of (2,3-3H)propionyl-b-ET-1(19-35)
# Format: biochemical
# Details: purified ECE, pre-incubation 30 minutes at 37° C., Tris maleate buffer pH=6.5, incubation one hour at 37° C.; read-out: IC50 (concentration which causes a 50% inhibition of ECE)
# From the text: A test is used, in which the product (2,3-^3H)propionyl-b-ET-1(19-35) prepared as indicated below in a) is cleaved by ECE into the product (2,3-^3H)propionyl-b-ET-1(19-21) in the presence of product P of which the inhibitory activity of ECE one wishes to determine as indicated below in b): the inhibitory activity of ECE of the product P will therefore be accordingly as high as the quantity of product of formula (II) formed, determined by counting the radioactivity, will be low. The operation is carried out as follows:
# 10 μl of ECE i.e. 1 to 2 μg of purified ECE are pre-incubated for 30 minutes at 37° C., in 400 μl of a 50 mM Tris maleate buffer pH=6.5, 20 μl of 5M sodium chloride and 5 μl of product P the inhibitory activity of which one wishes to test, in solution at different concentrations (comprised between […]) (i.e. final concentrations in product P of 10 nM to 1 mM).
# The reaction is initiated by the addition of 10 μl of (2,3-^3H)propionyl-b-ET-1(19-35) prepared as indicated above in a), at a final concentration of 1.8.10^−12M.
# After incubation for one hour at 37° C., the reaction is stopped by the addition of 600 μl of ethyl acetate and the (2,3-^3H)propionyl-b-ET-1(19-21) is extracted by mechanical agitation for 2 minutes.
# 300 μl of the organic phase is removed, 5 ml of liquid scintillator is added and the radioactivity is counted for 1 minute with a liquid scintillation counter.
# Each measurement is carried out in triplicate except for the ECE control (control enzyme, without the product the ECE inhibitory activity of which one wishes to test), for which the measurement is carried out six times.
# The percentage inhibition is calculated by establishing the relationship: [formula]
# The blank is carried out starting with the solution obtained without enzyme.
# From the cpm's obtained and by plotting the graph of the percentage of inhibition relative to the concentration of inhibitor (nM), the IC50 is calculated which therefore corresponds to the concentration which causes a 50% inhibition of ECE.
row,IC50,SMILES
1,30 nM,"N#Cc1ccccc1-c1ccc(CC(C(=O)O)C(=O)N[C@@H](CS)Cc2ccccc2)cc1 (mixture of isomers) [Example 4, 2′-cyano-alpha-[[[1-(mercaptomethyl)-2-phenylethyl]amino]carbonyl]-(1,1′-biphenyl)-4-propanoic acid]"
2,220 nM,O=C(CCCCCCCCCCOc1ccccc1)N[C@@H](CS)Cc1ccccc1 [Example 6]
3,150 nM,"N#Cc1ccccc1-c1ccc(CC(C(=O)O)C(=O)NC(CS)Cc2ccc(OS(=O)(=O)C(F)(F)F)cc2)cc1 (stereo not drawn) [Example 10, 2′-Cyano-alpha-[[[1-(mercaptomethyl) 2-(paratrifluoromethylsulphonyloxy)phenylethyl]amino]carbonyl](1,1′-biphenyl) 4-propanoic acid]"
